Tested on: 926638-142-R-J1-PDC complex spheroid viability
Experiment: Anticancer human tumor 926638-142-R-J1-PDC patient-derived endometrial carcinoma cell line growth inhibition [POLQ]
Settings: for IC50: curve of first compound; for viability, T/C: stronger effect = lower value
Method in brief: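 Patient-derived tumour cells were co-cultured with HUVEC and mesenchymal stem cells as multicellular spheroids at 37 °C. They were treated with POLQ inhibitors (novobiocin, ART-558, RP6685) alone or combined with other agents. Top concentrations were at or near clinical Cmax (otherwise 10 microM; SN-38 at 1 microM), decreasing in half-log steps.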

[1] = second compound 0.0316 µM, first compound 0.0316 µM
[2] = second compound 0.0316 µM, first compound 0.1 µM
[3] = second compound 0.0316 µM, first compound 0.316 µM
[4] = second compound 0.0316 µM, first compound 1 µM
[5] = second compound 0.0316 µM, first compound 3.16 µM
[6] = second compound 0.0316 µM, first compound 10 µM
[7] = second compound 0.1 µM, first compound 0.0316 µM
[8] = second compound 0.1 µM, first compound 0.1 µM
[9] = second compound 0.1 µM, first compound 0.316 µM
[10] = second compound 0.1 µM, first compound 1 µM
[11] = second compound 0.1 µM, first compound 3.16 µM
[12] = second compound 0.1 µM, first compound 10 µM
[13] = second compound 0.316 µM, first compound 0.0316 µM
[14] = second compound 0.316 µM, first compound 0.1 µM
[15] = second compound 0.316 µM, first compound 0.316 µM
[16] = second compound 0.316 µM, first compound 1 µM
[17] = second compound 0.316 µM, first compound 3.16 µM
[18] = second compound 0.316 µM, first compound 10 µM
[19] = second compound 1 µM, first compound 0.0316 µM
[20] = second compound 1 µM, first compound 0.1 µM
[21] = second compound 1 µM, first compound 0.316 µM
[22] = second compound 1 µM, first compound 1 µM
[23] = second compound 1 µM, first compound 3.16 µM
[24] = second compound 1 µM, first compound 10 µM
[25] = second compound 3.16 µM, first compound 0.0316 µM
[26] = second compound 3.16 µM, first compound 0.1 µM
[27] = second compound 3.16 µM, first compound 0.316 µM
[28] = second compound 3.16 µM, first compound 1 µM
[29] = second compound 3.16 µM, first compound 3.16 µM
[30] = second compound 3.16 µM, first compound 10 µM
[31] = second compound 10 µM, first compound 0.0316 µM
[32] = second compound 10 µM, first compound 0.1 µM
[33] = second compound 10 µM, first compound 0.316 µM
[34] = second compound 10 µM, first compound 1 µM
[35] = second compound 10 µM, first compound 3.16 µM
[36] = second compound 10 µM, first compound 10 µM
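Note: spheroids exposed to drugs for one week before readout.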
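Throughout, for viability, T/C: percent viability relative to DMSO vehicle control wells set as 100%.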

CC1COCCN1c1cc(C2(S(C)(=N)=O)CC2)nc(-c2ccnc3[nH]ccc23)n1 (stereo not given) + COC1C(OC(N)=O)C(O)C(Oc2ccc3c(O)c(NC(=O)c4ccc(O)c(CC=C(C)C)c4)c(=O)oc3c2C)OC1(C)C
IC50 (second compound 0.0316 µM): 5.67 µM | IC50 (second compound 0.1 µM): 7.87 µM | IC50 (second compound 0.316 µM): 6.15 µM | IC50 (second compound 1 µM): 5.99 µM | IC50 (second compound 3.16 µM): 5.86 µM | IC50 (second compound 10 µM): 5.68 µM | viability, T/C [1]: 119% | viability, T/C [2]: 99.4% | viability, T/C [3]: 110% | viability, T/C [4]: 88.1% | viability, T/C [5]: 64.9% | viability, T/C [6]: 35.5% | viability, T/C [7]: 96% | viability, T/C [8]: 107% | viability, T/C [9]: 109% | viability, T/C [10]: 82.7% | viability, T/C [11]: 71% | viability, T/C [12]: 44.5% | viability, T/C [13]: 107% | viability, T/C [14]: 98% | viability, T/C [15]: 115% | viability, T/C [16]: 83.1% | viability, T/C [17]: 77.2% | viability, T/C [18]: 31.9% | viability, T/C [19]: 121% | viability, T/C [20]: 101% | viability, T/C [21]: 94% | viability, T/C [22]: 84.4% | viability, T/C [23]: 77.2% | viability, T/C [24]: 31.8% | viability, T/C [25]: 93.1% | viability, T/C [26]: 106% | viability, T/C [27]: 114% | viability, T/C [28]: 99.3% | viability, T/C [29]: 70.4% | viability, T/C [30]: 32.4% | viability, T/C [31]: 97.6% | viability, T/C [32]: 91.4% | viability, T/C [33]: 100% | viability, T/C [34]: 89.2% | viability, T/C [35]: 71.1% | viability, T/C [36]: 29.8%

CCCS(=O)(=O)Nc1ccc(F)c(C(=O)c2c[nH]c3ncc(-c4ccc(Cl)cc4)cc23)c1F + COC1C(OC(N)=O)C(O)C(Oc2ccc3c(O)c(NC(=O)c4ccc(O)c(CC=C(C)C)c4)c(=O)oc3c2C)OC1(C)C
IC50 (second compound 0.0316 µM): 8.72 µM | IC50 (second compound 0.1 µM): 9.76 µM | IC50 (second compound 0.316 µM): 9.97 µM | IC50 (second compound 1 µM): > 10 µM | IC50 (second compound 3.16 µM): 9.78 µM | IC50 (second compound 10 µM): 9.92 µM | viability, T/C [1]: 112% | viability, T/C [2]: 89.5% | viability, T/C [3]: 93.1% | viability, T/C [4]: 122% | viability, T/C [5]: 86.4% | viability, T/C [6]: 45% | viability, T/C [7]: 108% | viability, T/C [8]: 105% | viability, T/C [9]: 83.3% | viability, T/C [10]: 112% | viability, T/C [11]: 91.3% | viability, T/C [12]: 49.1% | viability, T/C [13]: 110% | viability, T/C [14]: 114% | viability, T/C [15]: 118% | viability, T/C [16]: 116% | viability, T/C [17]: 105% | viability, T/C [18]: 49.6% | viability, T/C [19]: 84% | viability, T/C [20]: 95.7% | viability, T/C [21]: 104% | viability, T/C [22]: 101% | viability, T/C [23]: 98.8% | viability, T/C [24]: 52.2% | viability, T/C [25]: 89.7% | viability, T/C [26]: 92.3% | viability, T/C [27]: 89.2% | viability, T/C [28]: 95.2% | viability, T/C [29]: 95.5% | viability, T/C [30]: 49.2% | viability, T/C [31]: 81.9% | viability, T/C [32]: 93.7% | viability, T/C [33]: 90% | viability, T/C [34]: 84% | viability, T/C [35]: 83.7% | viability, T/C [36]: 49.5%

CCc1cc2c(N3CCc4c(cc(Cn5ccnc5)cc4-c4cn(C)nc4C(F)(F)F)C3=O)ccnc2c(OC)n1 + Cc1cccc(N(C)C(=O)C2C(O)CCN2c2nc(C)cc(C(F)(F)F)c2C#N)c1
IC50 (second compound 0.0316 µM): 0.287 µM | IC50 (second compound 0.1 µM): 0.356 µM | IC50 (second compound 0.316 µM): 1.29 µM | IC50 (second compound 1 µM): 0.346 µM | IC50 (second compound 3.16 µM): 0.483 µM | IC50 (second compound 10 µM): 0.379 µM | viability, T/C [1]: 76.8% | viability, T/C [2]: 74.5% | viability, T/C [3]: 46.7% | viability, T/C [4]: 44.8% | viability, T/C [5]: 38.6% | viability, T/C [6]: 29.6% | viability, T/C [7]: 112% | viability, T/C [8]: 70.1% | viability, T/C [9]: 48.3% | viability, T/C [10]: 45.5% | viability, T/C [11]: 41.8% | viability, T/C [12]: 29.1% | viability, T/C [13]: 70.8% | viability, T/C [14]: 66.1% | viability, T/C [15]: 59% | viability, T/C [16]: 55% | viability, T/C [17]: 40% | viability, T/C [18]: 26.7% | viability, T/C [19]: 83.4% | viability, T/C [20]: 59.4% | viability, T/C [21]: 47% | viability, T/C [22]: 52.7% | viability, T/C [23]: 37.3% | viability, T/C [24]: 33% | viability, T/C [25]: 87.1% | viability, T/C [26]: 70.9% | viability, T/C [27]: 55.5% | viability, T/C [28]: 40.9% | viability, T/C [29]: 32.1% | viability, T/C [30]: 25.7% | viability, T/C [31]: 85.9% | viability, T/C [32]: 59.4% | viability, T/C [33]: 58.4% | viability, T/C [34]: 36.7% | viability, T/C [35]: 34.2% | viability, T/C [36]: 23.6%

CC(C)n1c(=O)n(C)c2cnc3cc(F)c(-c4ccc(OCCCN5CCCCC5)nc4)cc3c21 + Cc1cccc(N(C)C(=O)C2C(O)CCN2c2nc(C)cc(C(F)(F)F)c2C#N)c1
IC50 (second compound 0.0316 µM): > 10 µM | IC50 (second compound 0.1 µM): > 10 µM | IC50 (second compound 0.316 µM): > 10 µM | IC50 (second compound 1 µM): > 10 µM | IC50 (second compound 3.16 µM): > 10 µM | IC50 (second compound 10 µM): 9.83 µM | viability, T/C [1]: 86.5% | viability, T/C [2]: 88.5% | viability, T/C [3]: 87.6% | viability, T/C [4]: 88.9% | viability, T/C [5]: 94.1% | viability, T/C [6]: 62.1% | viability, T/C [7]: 94.6% | viability, T/C [8]: 81.8% | viability, T/C [9]: 103% | viability, T/C [10]: 86.7% | viability, T/C [11]: 79.5% | viability, T/C [12]: 50.9% | viability, T/C [13]: 104% | viability, T/C [14]: 123% | viability, T/C [15]: 89.7% | viability, T/C [16]: 102% | viability, T/C [17]: 93.7% | viability, T/C [18]: 52.3% | viability, T/C [19]: 92.8% | viability, T/C [20]: 88.9% | viability, T/C [21]: 78.5% | viability, T/C [22]: 102% | viability, T/C [23]: 107% | viability, T/C [24]: 72.3% | viability, T/C [25]: 89.5% | viability, T/C [26]: 95.8% | viability, T/C [27]: 92% | viability, T/C [28]: 104% | viability, T/C [29]: 74% | viability, T/C [30]: 65.2% | viability, T/C [31]: 103% | viability, T/C [32]: 89.2% | viability, T/C [33]: 107% | viability, T/C [34]: 87% | viability, T/C [35]: 76.1% | viability, T/C [36]: 49.1%

CC(C)n1c(=O)n(C)c2cnc3cc(F)c(-c4ccc(OCCCN5CCCCC5)nc4)cc3c21 + COC1C(OC(N)=O)C(O)C(Oc2ccc3c(O)c(NC(=O)c4ccc(O)c(CC=C(C)C)c4)c(=O)oc3c2C)OC1(C)C
IC50 (second compound 0.0316 µM): > 10 µM | IC50 (second compound 0.1 µM): > 10 µM | IC50 (second compound 0.316 µM): > 10 µM | IC50 (second compound 1 µM): > 10 µM | IC50 (second compound 3.16 µM): > 10 µM | IC50 (second compound 10 µM): > 10 µM | viability, T/C [1]: 87.3% | viability, T/C [2]: 131% | viability, T/C [3]: 131% | viability, T/C [4]: 94.1% | viability, T/C [5]: 87.2% | viability, T/C [6]: 88.7% | viability, T/C [7]: 98.7% | viability, T/C [8]: 89.8% | viability, T/C [9]: 110% | viability, T/C [10]: 107% | viability, T/C [11]: 90.3% | viability, T/C [12]: 93.5% | viability, T/C [13]: 101% | viability, T/C [14]: 104% | viability, T/C [15]: 108% | viability, T/C [16]: 90.2% | viability, T/C [17]: 86.6% | viability, T/C [18]: 89% | viability, T/C [19]: 119% | viability, T/C [20]: 104% | viability, T/C [21]: 104% | viability, T/C [22]: 119% | viability, T/C [23]: 81.9% | viability, T/C [24]: 90.2% | viability, T/C [25]: 87.4% | viability, T/C [26]: 107% | viability, T/C [27]: 101% | viability, T/C [28]: 109% | viability, T/C [29]: 88.2% | viability, T/C [30]: 105% | viability, T/C [31]: 114% | viability, T/C [32]: 104% | viability, T/C [33]: 114% | viability, T/C [34]: 100% | viability, T/C [35]: 89.5% | viability, T/C [36]: 78.5%

— PubChem BioAssay AID1963826 (Molecular Pharmacology Branch, DTP, NCI, 2024)
